These are literature values, as cited in PMC2692938 (Nuclear medicine and biology, 2009).

The subject of this data set is αvβ3. The conditions noted are these: selective αvβ3 antagonist.

For c(RGDfV), the IC50 values result was “lower nanomolar range”.
